Paper PMC11825904 (Nature Communications, 2025)

Experiments:
rNsp5-L50F/E166A/L167F = assay type: cell-based, SARS-CoV-2; conditions: read-out: rNsp5-L50F/E166A/L167F EC50
rNsp5-L50F/E166V = assay type: cell-based, SARS-CoV-2; conditions: read-out: rNsp5-L50F/E166V EC50

CC(C)(C)[C@H](NC(=O)C(F)(F)F)C(=O)N1C[C@H]2[C@@H]([C@H]1C(=O)N[C@H](C#N)C[C@@H]1CCNC1=O)C2(C)C [Nirmatrelvir, nirmatrelvir]
EC50 (rNsp5-L50F/E166A/L167F): 630 nM
EC50 (rNsp5-L50F/E166V): > 1000 nM
